According to paper PMC12217463, “Functional and structural analyses of amino acid sequence variation in PDC β-lactamase reveal different mechanistic pathways toward cefiderocol resistance in Pseudomonas aeruginosa” (Antimicrobial Agents and Chemotherapy, 2025):
In brackets after ≈: the same amount, converted by molar mass.

Legend:
PDC-1 (WT) = PDC-1 (WT) (Pseudomonas aeruginosa, UniProt P24735); test: Steady-state kinetics of purified β-lactamase; conditions: for kcat: PDC-1 (WT), direct hydrolysis at substrate concentration at least three times the Km, 10 mM PBS, pH 7.4, room temperature; for Ratio: kcat/Km relative to PDC-1 (reference = 1)
PDC E219K = PDC E219K (Pseudomonas aeruginosa, UniProt P24735, E247K); test: Steady-state kinetics of purified β-lactamase; conditions: for increase in kcat values: PDC E219K relative to PDC-1; for Km / kcat: PDC E219K, 10 mM PBS, pH 7.4, room temperature; for Km: antibiotics: determined as Ki app with nitrocefin as reporter substrate; for kcat: direct hydrolysis at substrate concentration at least three times the Km; for Ratio for PDC E219K/PDC-1: ratio of kcat/Km (fold change in catalytic efficiency)
[1] = system: PAO1 + blaPDC F121L + G220S; test: MIC, broth microdilution; type: cell-based; conditions: Pseudomonas aeruginosa
PDC L293P = PDC L293P (Pseudomonas aeruginosa, UniProt P24735, L320P); test: Steady-state kinetics of purified β-lactamase; conditions: for Km / kcat: PDC L293P, 10 mM PBS, pH 7.4, room temperature; for Km: antibiotics: determined as Ki app with nitrocefin as reporter substrate; for kcat: direct hydrolysis at substrate concentration at least three times the Km; for Ratio for PDC L293P/PDC-1: ratio of kcat/Km (fold change in catalytic efficiency)
PAO1 + blaPDC G156D = test: MIC, broth microdilution; type: cell-based; conditions: Pseudomonas aeruginosa
Description: (§1) We took advantage of a previously constructed and characterized laboratory collection of recombinant P. aeruginosa PAO1 isolates expressing different blaPDC variants, but specifically enriched for this work with additional variants, following the previously described methodology ([17]). […] The final collection comprised 40 recombinant isolates (20 in PAO1 and 20 in PAO ΔpiuC) producing the wild-type PDC-1 variant from PAO1 and 19 derivatives carrying specific amino acid substitutions previously associated with the development of resistance to ceftazidime/avibactam, ceftolozane/tazobactam, or cefiderocol: T70I, F121L, P153L, G156D, A200T, G202S, ΔG202-E219, G214R, P215L, P215S, ΔP215-G222, D217N, E219K, E219G, E219D, S226ins, L293P, F121L + E219K, and F121L + G222S.
(§2) The MICs of ceftazidime, ceftazidime/avibactam, ceftolozane/tazobactam, cefepime, and cefiderocol were determined in triplicate, for all isolates, by reference broth microdilution assays. Avibactam and tazobactam were fixed at 4 mg/L. All assays were performed using cation-adjusted Mueller-Hinton broth (CAMHB), except for cefiderocol, which was determined in all cases using iron-depleted CAMHB, prepared according to CLSI M100 guidelines ([40]). EUCAST v.15.0 clinical breakpoints and guidelines (http://www.eucast.org/clinical_breakpoints/) were used for reference purposes. Reference strains Escherichia coli ATCC 25922, Klebsiella pneumoniae ATCC 700603, and P. aeruginosa ATCC 27853 were used as controls.

PAO1 + blaPDC G214R = test: MIC, broth microdilution; type: cell-based; conditions: Pseudomonas aeruginosa
Description: as §1, §2

PAO1 + blaPDC ∆G202-E219 = test: MIC, broth microdilution; type: cell-based; conditions: Pseudomonas aeruginosa, avibactam and tazobactam fixed at 4 mg/L, FDC in iron-depleted CAMHB
Description: as §1, §2

PAO1 + blaPDC ∆P215-G222 = test: MIC, broth microdilution; type: cell-based; conditions: Pseudomonas aeruginosa, avibactam and tazobactam fixed at 4 mg/L, FDC in iron-depleted CAMHB
Description: as §1, §2

PAO1 + blaPDC L293P = test: MIC, broth microdilution; type: cell-based; conditions: Pseudomonas aeruginosa
Description: as §1, §2

PAO1 + blaPDC F121L = test: MIC, broth microdilution; type: cell-based; conditions: Pseudomonas aeruginosa
Description: as §1, §2

PAO1 + blaPDC E219G = test: MIC, broth microdilution; type: cell-based; conditions: Pseudomonas aeruginosa
Description: as §1, §2

[2] = system: PAO1 + blaPDC F121L + E219K; test: MIC, broth microdilution; type: cell-based; conditions: Pseudomonas aeruginosa
Description: as §1, §2

PAO1 + blaPDC P215L = test: MIC, broth microdilution; type: cell-based; conditions: Pseudomonas aeruginosa
Description: as §1, §2

PAO1 + blaPDC S226ins = test: MIC, broth microdilution; type: cell-based; conditions: Pseudomonas aeruginosa, avibactam and tazobactam fixed at 4 mg/L, FDC in iron-depleted CAMHB
Description: as §1, §2

PAO1 + blaPDC A200T = test: MIC, broth microdilution; type: cell-based; conditions: Pseudomonas aeruginosa
Description: as §1, §2

PAO1 + blaPDC D217N = test: MIC, broth microdilution; type: cell-based; conditions: Pseudomonas aeruginosa
Description: as §1, §2

PAO1 + blaPDC P215S = test: MIC, broth microdilution; type: cell-based; conditions: Pseudomonas aeruginosa
Description: as §1, §2

PAO1 + blaPDC G202S = test: MIC, broth microdilution; type: cell-based; conditions: Pseudomonas aeruginosa
Description: as §1, §2

PAO1 + blaPDC T70I = test: MIC, broth microdilution; type: cell-based; conditions: Pseudomonas aeruginosa
Description: as §1, §2

PAO1 + blaPDC E219K = test: MIC, broth microdilution; type: cell-based; conditions: Pseudomonas aeruginosa
Description: as §1, §2

PAO1 + blaPDC-1 (WT) = test: MIC, broth microdilution; type: cell-based; conditions: Pseudomonas aeruginosa, avibactam and tazobactam fixed at 4 mg/L, FDC in iron-depleted CAMHB
Description: as §1, §2

PAO1 + blaPDC P153L = test: MIC, broth microdilution; type: cell-based; conditions: Pseudomonas aeruginosa
Description: as §1, §2

PAO1 = test: MIC, broth microdilution; type: cell-based; conditions: Pseudomonas aeruginosa; PAO1 wild type, no plasmid-borne PDC; avibactam and tazobactam fixed at 4 mg/L; FDC in iron-depleted CAMHB
Description: as §1, §2

PAO1 + blaPDC E219D = test: MIC, broth microdilution; type: cell-based; conditions: Pseudomonas aeruginosa
Description: as §1, §2

[3] = system: CC(C)(O/N=C(\C(=O)N[C@@H]1C(=O)N2C(C(=O)[O-])=C(C[N+]3(CCNC(=O)c4ccc(O)c(O)c4Cl)CCCC3)CS[C@H]12)c1csc(N)n1)C(=O)O; test: purified protein, by the assay type; conditions: other: PDC-1 (WT), antibiotics: determined as Ki app with nitrocefin as reporter substrate, 10 mM PBS, pH 7.4, room temperature
[4] = system: CC(C)(O/N=C(\C(=O)N[C@@H]1C(=O)N2C(C(=O)[O-])=C(C[n+]3ccccc3)CS[C@H]12)c1csc(N)n1)C(=O)O; test: purified protein, by the assay type; conditions: other: PDC-1 (WT), antibiotics: determined as Ki app with nitrocefin as reporter substrate, 10 mM PBS, pH 7.4, room temperature
[5] = system: CO/N=C(\C(=O)N[C@@H]1C(=O)N2C(C(=O)[O-])=C(C[N+]3(C)CCCC3)CS[C@H]12)c1csc(N)n1; test: purified protein, by the assay type; conditions: other: PDC-1 (WT), antibiotics: determined as Ki app with nitrocefin as reporter substrate, 10 mM PBS, pH 7.4, room temperature
[6] = system: Cn1c(N)c(NC(=O)NCCN)c[n+]1CC1=C(C(=O)O)N2C(=O)[C@@H](NC(=O)/C(=N\OC(C)(C)C(=O)[O-])c3nsc(N)n3)[C@H]2SC1; test: purified protein, by the assay type; conditions: other: PDC-1 (WT), antibiotics: determined as Ki app with nitrocefin as reporter substrate, 10 mM PBS, pH 7.4, room temperature
[7] = system: O=C(Cc1cccs1)N[C@@H]1C(=O)N2C(C(=O)O)=C(/C=C/c3ccc([N+](=O)[O-])cc3[N+](=O)[O-])CS[C@H]12; test: purified protein, by the assay type; conditions: other: PDC-1 (WT), antibiotics: determined as Ki app with nitrocefin as reporter substrate, 10 mM PBS, pH 7.4, room temperature

Molecule | kcat (PDC-1 (WT)) [s⁻¹] | Ratio (PDC-1 (WT)) | increase in kcat values (PDC E219K) | Km (PDC E219K) [µM] | MIC [1] [µg/mL] | Km (PDC L293P) [µM] | kcat (PDC L293P) [s⁻¹] | Ratio for PDC L293P/PDC-1 (PDC L293P) | MIC (PAO1 + blaPDC G156D) [µg/mL] | MIC (PAO1 + blaPDC G214R) [µg/mL] | MIC (PAO1 + blaPDC ∆G202-E219) [µg/mL] | MIC (PAO1 + blaPDC ∆P215-G222) [µg/mL] | MIC (PAO1 + blaPDC L293P) [µg/mL] | MIC (PAO1 + blaPDC F121L) [µg/mL] | MIC (PAO1 + blaPDC E219G) [µg/mL] | MIC [2] [µg/mL] | MIC (PAO1 + blaPDC P215L) [µg/mL] | MIC (PAO1 + blaPDC S226ins) [µg/mL] | kcat (PDC E219K) [s⁻¹] | Ratio for PDC E219K/PDC-1 (PDC E219K) | other results
CC(C)(O/N=C(\C(=O)N[C@@H]1C(=O)N2C(C(=O)[O-])=C(C[n+]3ccccc3)CS[C@H]12)c1csc(N)n1)C(=O)O [CAZ, ceftazidime] | 0.0082 | 1 | ≈ 267 fold | 292 ± 27.5 | 64 (≈ 117 µM) | 2.84 ± 0.31 | 0.0110 ± 0.0003 | 8.67 | 64 (≈ 117 µM) | 128 (≈ 234 µM) | 64 | 256 | 64 (≈ 117 µM) | 64 (≈ 117 µM) | 16 (≈ 29.3 µM) | > 256 | 64 (≈ 117 µM) | 128 |  |  | kcat (PDC E219K; listed as Ceftazidime): 2.19 ± 0.17 s⁻¹; kcat (PDC E219K; listed as ceftazidime): 2.19 s⁻¹; Ratio for PDC E219K/PDC-1 (PDC E219K; listed as Ceftazidime): 15.56; Ratio for PDC E219K/PDC-1 (PDC E219K; listed as ceftazidime): ≈ 16; MIC (PAO1 + blaPDC A200T): 64 µg/mL (≈ 117 µM); MIC (PAO1 + blaPDC D217N): 64 µg/mL (≈ 117 µM); MIC (PAO1 + blaPDC P215S): 64 µg/mL (≈ 117 µM); MIC (PAO1 + blaPDC G202S): 64 µg/mL (≈ 117 µM); MIC (PAO1 + blaPDC T70I): 64 µg/mL (≈ 117 µM); MIC (PAO1 + blaPDC E219K): 256 µg/mL (≈ 468 µM); MIC (PAO1 + blaPDC-1 (WT)): 32 µg/mL; MIC (PAO1 + blaPDC P153L): 128 µg/mL (≈ 234 µM); MIC (PAO1): ≤ 1 µg/mL; MIC (PAO1 + blaPDC E219D): 64 µg/mL (≈ 117 µM)
Cn1c(N)c(NC(=O)NCCN)c[n+]1CC1=C(C(=O)O)N2C(=O)[C@@H](NC(=O)/C(=N\OC(C)(C)C(=O)[O-])c3nsc(N)n3)[C@H]2SC1 [Ceftolozane, ceftolozane] | 0.0715 | 1 | ≈ 58 fold | 266 ± 43.5 |  | 108 ± 28.8 | 0.051 ± 0.007 | 3.69 |  |  |  |  |  |  |  |  |  |  | 4.18 ± 0.19 | 123.08 | kcat (PDC E219K; listed as ceftolozane): 4.18 s⁻¹; Ratio for PDC E219K/PDC-1 (PDC E219K; listed as ceftolozane): ≈ 123
CO/N=C(\C(=O)N[C@@H]1C(=O)N2C(C(=O)[O-])=C(C[N+]3(C)CCCC3)CS[C@H]12)c1csc(N)n1 [FEP, cefepime] |  | 1 |  | 92.5 ± 26.3 | 32 (≈ 66.6 µM) | 4.58 ± 0.42 | 0.189 ± 0.007 | 39.29 | 4 (≈ 8.32 µM) | 16 (≈ 33.3 µM) | 8 | 32 | 128 (≈ 266 µM) | 16 (≈ 33.3 µM) | 4 (≈ 8.32 µM) | 32 (≈ 66.6 µM) | 8 (≈ 16.6 µM) | 8 | 0.25 ± 0.06 | 2.57 | improvement in substrate binding affinity (Km decrease) (PDC L293P; PDC L293P relative to PDC-1): ≈ 29 fold; MIC (PAO1 + blaPDC A200T): 16 µg/mL (≈ 33.3 µM); MIC (PAO1 + blaPDC D217N): 16 µg/mL (≈ 33.3 µM); MIC (PAO1 + blaPDC P215S): 8 µg/mL (≈ 16.6 µM); MIC (PAO1 + blaPDC G202S): 16 µg/mL (≈ 33.3 µM); MIC (PAO1 + blaPDC T70I): 16 µg/mL (≈ 33.3 µM); MIC (PAO1 + blaPDC E219K): 32 µg/mL (≈ 66.6 µM); MIC (PAO1 + blaPDC-1 (WT)): 16 µg/mL; MIC (PAO1 + blaPDC P153L): 32 µg/mL (≈ 66.6 µM); MIC (PAO1): 2 µg/mL; MIC (PAO1 + blaPDC E219D): 8 µg/mL (≈ 16.6 µM)
O=C(Cc1cccs1)N[C@@H]1C(=O)N2C(C(=O)O)=C(/C=C/c3ccc([N+](=O)[O-])cc3[N+](=O)[O-])CS[C@H]12 [Nitrocefin, nitrocefin] |  | 1 |  | 24.1 ± 4.01 |  | 6.71 ± 1.28 | 18.77 ± 4.37 | 1.80 |  |  |  |  |  |  |  |  |  |  | 4.41 ± 0.18 | 0.12 | 
PDC-1 (WT) (Pseudomonas aeruginosa PAO1) |  |  |  |  |  |  |  |  |  |  |  |  |  |  |  |  |  |  |  |  | Km [3]: 85.29 ± 9.48 µM; kcat [3]: 0.0036 ± 0.0007 s⁻¹; kcat/Km [3]: 40 M⁻¹ s⁻¹; Km [4]: 18.08 ± 0.88 µM; kcat [4]: 0.0082 ± 0.0007 s⁻¹; kcat/Km [4]: 450 M⁻¹ s⁻¹; Km [5]: 132.06 ± 23.69 µM; kcat [5]: 0.138 ± 0.009 s⁻¹; kcat/Km [5]: 1050 M⁻¹ s⁻¹; Km [6]: 554.08 ± 3.00 µM; kcat [6]: 0.0715 ± 0.0006 s⁻¹; kcat/Km [6]: 130 M⁻¹ s⁻¹; Km [7]: 13.98 ± 0.80 µM; kcat [7]: 21.9 ± 6.5 s⁻¹; kcat/Km [7]: 1.55e+06 ± 380000 M⁻¹ s⁻¹
